Reference: PubChem BioAssay AID1963436 (Molecular Pharmacology Branch, DTP, NCI, 2024)

Test system: OVCAR-5 complex spheroid (HUVEC/MSC), viability % T/C
Test: Anticancer human tumor OVCAR-5 cell line growth inhibition [Asc];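 note: spheroids exposed to agents for 7 days before readout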;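 for viability, T/C: 100% = DMSO vehicle-treated wells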
Settings: for IC50: curve of first compound; for viability, T/C: stronger effect = lower value; active = viability on the fitted dose curve at most 10% of control; inactive = the rest
How it was run: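 Tumor cells were grown as multicellular spheroids with stromal HUVEC and mesenchymal stem cells and treated singly or in combination. Concentrations fell in half-log steps from the clinical Cmax, or from 10 microM where none was known.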

[1] = second compound 0.1 µM, first compound 0.0316 µM
[2] = second compound 0.1 µM, first compound 0.1 µM
[3] = second compound 0.316 µM, first compound 0.0316 µM
[4] = second compound 0.316 µM, first compound 0.1 µM
[5] = second compound 1 µM, first compound 0.0316 µM
[6] = second compound 1 µM, first compound 0.1 µM
[7] = second compound 3.16 µM, first compound 0.0316 µM
[8] = second compound 3.16 µM, first compound 0.1 µM
[9] = second compound 10 µM, first compound 0.0316 µM
[10] = second compound 10 µM, first compound 0.1 µM

Cn1ncnc1[C@H]1c2n[nH]c(=O)c3cc(F)cc(c23)N[C@@H]1c1ccc(F)cc1 + Cc1c(S(C)(=O)=O)c(-c2cc(F)cc(N3CCN(c4ccc(NS(=O)(=O)c5ccc(NC(CCN6CCC(C(=O)OCCCP(=O)(O)O)CC6)CSc6ccccc6)c(S(=O)(=O)C(F)(F)F)c5)cc4)CC3)c2)c(-c2ccc(Cl)cc2)n1C(C)C
inactive: viability, T/C (second compound 0.1 µM, first compound 0.000316 µM) 99% | viability, T/C (second compound 0.1 µM, first compound 0.001 µM) 101% | viability, T/C (second compound 0.1 µM, first compound 0.00316 µM) 100% | viability, T/C (second compound 0.1 µM, first compound 0.01 µM) 82.9% | viability, T/C [1] 86% | viability, T/C [2] 91.1% | viability, T/C (second compound 0.316 µM, first compound 0.000316 µM) 96.3% | viability, T/C (second compound 0.316 µM, first compound 0.001 µM) 95% | viability, T/C (second compound 0.316 µM, first compound 0.00316 µM) 97% | viability, T/C (second compound 0.316 µM, first compound 0.01 µM) 89.7% | viability, T/C [3] 89.1% | viability, T/C [4] 74.2% | viability, T/C (second compound 1 µM, first compound 0.000316 µM) 96.7% | viability, T/C (second compound 1 µM, first compound 0.001 µM) 110% | viability, T/C (second compound 1 µM, first compound 0.00316 µM) 100% | viability, T/C (second compound 1 µM, first compound 0.01 µM) 91.7% | viability, T/C [5] 76.5% | viability, T/C [6] 89.2% | viability, T/C (second compound 3.16 µM, first compound 0.000316 µM) 88.1% | viability, T/C (second compound 3.16 µM, first compound 0.001 µM) 90.9% | viability, T/C (second compound 3.16 µM, first compound 0.00316 µM) 91.2% | viability, T/C (second compound 3.16 µM, first compound 0.01 µM) 70.1% | viability, T/C [7] 87.9% | viability, T/C [8] 76.9% | viability, T/C (second compound 10 µM, first compound 0.000316 µM) 117% | viability, T/C (second compound 10 µM, first compound 0.001 µM) 138% | viability, T/C (second compound 10 µM, first compound 0.00316 µM) 133% | viability, T/C (second compound 10 µM, first compound 0.01 µM) 110% | viability, T/C [9] 97.9% | viability, T/C [10] 102%
> 0.1 µM: IC50 (second compound 0.1 µM) | IC50 (second compound 0.316 µM) | IC50 (second compound 1 µM) | IC50 (second compound 3.16 µM) | IC50 (second compound 10 µM)

C#Cc1c(F)ccc2cc(O)cc(-c3ncc4c(N5CC6CCC(C5)N6)nc(OCC56CCCN5CC(F)C6)nc4c3F)c12 (stereo not given) + Cc1c(S(C)(=O)=O)c(-c2cc(F)cc(N3CCN(c4ccc(NS(=O)(=O)c5ccc(NC(CCN6CCC(C(=O)OCCCP(=O)(O)O)CC6)CSc6ccccc6)c(S(=O)(=O)C(F)(F)F)c5)cc4)CC3)c2)c(-c2ccc(Cl)cc2)n1C(C)C
4.45 µM: IC50 (second compound 0.316 µM)
5.34 µM: IC50 (second compound 0.1 µM)
3.72 µM: IC50 (second compound 1 µM)
2.81 µM: IC50 (second compound 3.16 µM)
3.73 µM: IC50 (second compound 10 µM)
inactive: viability, T/C [1] 96.7% | viability, T/C [2] 107% | viability, T/C (second compound 0.1 µM, first compound 0.316 µM) 102% | viability, T/C (second compound 0.1 µM, first compound 1 µM) 78.7% | viability, T/C (second compound 0.1 µM, first compound 3.16 µM) 69.3% | viability, T/C (second compound 0.1 µM, first compound 10 µM) 30.3% | viability, T/C [3] 91.8% | viability, T/C [4] 98.2% | viability, T/C (second compound 0.316 µM, first compound 0.316 µM) 87.2% | viability, T/C (second compound 0.316 µM, first compound 1 µM) 80.1% | viability, T/C (second compound 0.316 µM, first compound 3.16 µM) 61.1% | viability, T/C (second compound 0.316 µM, first compound 10 µM) 24.5% | viability, T/C [5] 89.7% | viability, T/C [6] 107% | viability, T/C (second compound 1 µM, first compound 0.316 µM) 90.1% | viability, T/C (second compound 1 µM, first compound 1 µM) 75.9% | viability, T/C (second compound 1 µM, first compound 3.16 µM) 56.3% | viability, T/C (second compound 1 µM, first compound 10 µM) 21.7% | viability, T/C [7] 84.9% | viability, T/C [8] 99.9% | viability, T/C (second compound 3.16 µM, first compound 0.316 µM) 96.1% | viability, T/C (second compound 3.16 µM, first compound 1 µM) 69% | viability, T/C (second compound 3.16 µM, first compound 3.16 µM) 49.8% | viability, T/C (second compound 3.16 µM, first compound 10 µM) 12.9% | viability, T/C [9] 133% | viability, T/C [10] 116% | viability, T/C (second compound 10 µM, first compound 0.316 µM) 118% | viability, T/C (second compound 10 µM, first compound 1 µM) 88.5% | viability, T/C (second compound 10 µM, first compound 3.16 µM) 56.6% | viability, T/C (second compound 10 µM, first compound 10 µM) 12.7%
